Among the data in patent publication US20230159510A1, “NOVEL PRMT5 INHIBITORS” (AMGEN INC., priority 2020, published 2023) are IC50 and Ki values, retold here.

For one assay, the system named is HCT116 MTAP null cells. Put plainly: HCT116 proliferation assay, MTAP null cells (CellTiter-Glo, 6 days). The assay is classed as cell-based. The settings on record: HCT116-MTAP null, 144 h, read-out: Protif_ HCT116-MTAP null IC50. A digest of the protocol:
(§1)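 Cells were plated in RPMI 1640 with 10% fetal bovine serum and left overnight at 37° C and 5% CO2. Compound was then added as an 8- or 9-point 1:3 dilution series from a top concentration of 1 or 10 µM, alongside a DMSO-only control. Viability was read by luminescence.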

The next assay has as its system HCT116 WT cells. The assay is described as follows: HCT116 proliferation assay, WT cells (CellTiter-Glo, 6 days). It counts as cell-based. As to conditions: Homo sapiens, HCT-116, 144 h, read-out: Prolif_HCT116-WT IC50. The method, boiled down:
as §1

For another assay, the target named is PRMT5/MEP50 (Homo sapiens, UniProt O14744). The assay is described as follows: MTase-Glo methyl transferase assay, Method A (Histone H4 peptide, 1 µM MTA, 24 h pre-incubation). Details: made in house. The settings on record: read-out: PRMT5 MTase Glo Ki (nM, Meth. A). It counts as biochemical. The procedure:
Method A: The PRMT5 inhibitory activity of test compounds was determined using the MTase-Glo™ assay (Promega), which monitors the product (S-adenosyl homocysteine or SAH) of methyltransferase reactions. The PRMT5 MTase-Glo assay was conducted in a 384-well white ProxiPlate (PerkinElmer) in a total volume of 12 µL. The PRMT5 enzymatic reaction (in 4 µL) contained 10 nM PRMT5/MEP50 (produced at Amgen), 5 µM S-adenosyl methionine (SAM, Promega), 1 µM Histone H4 (1-21)-Lys(Biotin) (Anaspec), 1 µM 5′-methylthioadenosine (MTA, Sigma) and two-fold serially diluted compounds in a reaction buffer of 50 mM Tris (pH 8.0), 50 mM NaCl, 0.01% Tween 20, 0.01% BSA, and 1 mM DTT. Test compounds were pre-incubated with PRMT5/MEP50, SAM, and MTA for 24 hours before addition of Histone H4 peptide to initiate the PRMT5 reaction. The reaction was allowed to proceed for 2 hours at room temperature and was then terminated by addition of 2 µL of 3X MTase-Glo™ Reagent (Promega) and 150 µM EPZ015666 (Sigma). After a 30-minute incubation at room temperature, 6 µL of MTase-Glo™ Detection Solution (Promega) was added and the plate was incubated at room temperature for an additional 30 minutes. The light signal corresponding to the amount of SAH produced by the PRMT5 reaction was subsequently measured using an Envision multimode reader (PerkinElmer). IC50 and KI values were obtained by analyzing dose-response curves using Genedata Screener (Genedata).

Sequence of PRMT5/MEP50 (O14744 whole entry): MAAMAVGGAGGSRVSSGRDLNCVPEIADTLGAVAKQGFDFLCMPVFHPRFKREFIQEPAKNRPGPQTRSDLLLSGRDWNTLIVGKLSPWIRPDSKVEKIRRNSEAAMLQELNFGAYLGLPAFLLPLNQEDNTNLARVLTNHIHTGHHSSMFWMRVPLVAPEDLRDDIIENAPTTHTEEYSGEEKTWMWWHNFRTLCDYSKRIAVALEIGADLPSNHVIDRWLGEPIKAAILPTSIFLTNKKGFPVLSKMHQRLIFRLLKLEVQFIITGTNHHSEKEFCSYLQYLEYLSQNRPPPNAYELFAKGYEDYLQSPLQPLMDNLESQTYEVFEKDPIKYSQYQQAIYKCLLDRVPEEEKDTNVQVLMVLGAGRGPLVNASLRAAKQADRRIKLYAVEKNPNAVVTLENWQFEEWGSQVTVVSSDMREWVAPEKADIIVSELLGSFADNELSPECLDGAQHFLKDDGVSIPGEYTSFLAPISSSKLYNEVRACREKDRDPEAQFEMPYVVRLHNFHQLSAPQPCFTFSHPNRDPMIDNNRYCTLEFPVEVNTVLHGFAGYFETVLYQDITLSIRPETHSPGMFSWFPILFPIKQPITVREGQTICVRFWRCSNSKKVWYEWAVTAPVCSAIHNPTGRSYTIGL
Sequence of PRMT5/MEP50 (Q9BQA1 whole entry partner): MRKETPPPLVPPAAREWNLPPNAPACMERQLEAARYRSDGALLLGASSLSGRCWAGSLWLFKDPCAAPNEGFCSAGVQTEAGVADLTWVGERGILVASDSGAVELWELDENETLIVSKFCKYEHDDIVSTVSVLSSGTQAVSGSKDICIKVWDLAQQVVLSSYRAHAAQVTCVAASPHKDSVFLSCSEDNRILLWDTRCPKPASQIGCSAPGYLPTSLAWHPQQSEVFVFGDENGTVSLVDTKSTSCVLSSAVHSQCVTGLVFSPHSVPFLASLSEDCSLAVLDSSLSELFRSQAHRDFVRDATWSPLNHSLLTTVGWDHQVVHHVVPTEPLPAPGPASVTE

In the case of `Cc1cc2cc(C(=O)N(Cc3ccc(C(F)(F)F)cn3)CC3CC3)ccc2nc1N` [Example 325, 2-amino-N-(cyclopropylmethyl)-3-methyl-N-((5-(trifluoromethyl)-2-pyridinyl)methyl)-6-quinolinecarboxamide], the IC50 came out at 679 nM with HCT116 MTAP null cells and 6.18 µM with HCT116 WT cells. Moreover, on PRMT5/MEP50, the inhibitory constant (Ki) was found to be 2.76 nM.

`Cc1cc2cc(C(=O)N(Cc3ccc(Cl)c(C)n3)[C@H](C)c3ncccn3)ccc2nc1N` (single isomer, unassigned) [Example 468]: the IC50 with HCT116 MTAP null cells is 34 nM; in the assay on HCT116 WT cells it was 0.853 µM. At PRMT5/MEP50, the Ki is under 0.1 nM.

For the molecule `C[C@H](c1ncn(C)n1)N(Cc1ccc(C(F)F)cn1)C(=O)c1cnc2nc(N)c(Br)cc2c1` (single isomer, unassigned) [Example 535], the half-maximal inhibitory concentration (IC50) is 552 nM in the assay with HCT116 MTAP null cells and over 10 µM with HCT116 WT cells. Further, the Ki on PRMT5/MEP50 was found to be 0.34 nM.

Regarding `Cc1cc2cc(C(=O)N(Cc3ncc(C(F)(F)F)cc3F)[C@H](C)c3ncccc3F)ccc2nc1N` [Example 391, 2-amino-N-((1R)-1-(3-fluoro-2-pyridinyl)ethyl)-N-((3-fluoro-5-(trifluoromethyl)-2-pyridinyl)methyl)-3-methyl-6-quinolinecarboxamide], the figures for the IC50 with HCT116 MTAP null cells and with HCT116 WT cells were 165 nM and 4.8 µM, respectively. For the same molecule, the inhibitory constant (Ki) at PRMT5/MEP50 was 0.01 nM.

With `CC[C@H](c1ncccn1)N(Cc1ccc(C(F)(F)F)nn1)C(=O)c1ccc2nc(N)c(C)cc2c1` (single isomer, unassigned) [Example 495], the half-inhibitory concentration (IC50) in the assay on HCT116 MTAP null cells amounted to 86 nM; with HCT116 WT cells, 3.17 µM. Further, at PRMT5/MEP50, the inhibitory constant (Ki) turned out to be 0.06 nM.

For the molecule `Cc1cc2cc(C(=O)N(Cc3ccc(C#N)cn3)[C@@H](c3ncccn3)C3CC3)c(F)cc2nc1N` [Example 421, 2-amino-N-((5-cyano-2-pyridinyl)methyl)-N-((R)-cyclopropyl(2-pyrimidinyl)methyl)-7-fluoro-3-methyl-6-quinolinecarboxamide], the half-inhibitory concentration (IC50) in the assay on HCT116 MTAP null cells is 56 nM; with HCT116 WT cells, 1.13 µM. For the same molecule, on PRMT5/MEP50, the Ki worked out at 0.54 nM.

Turning to `Cc1cc2cc(C(=O)N(Cc3ccc(C#N)cn3)[C@H](C)c3ncccc3F)ccc2nc1N` [Example 542, (R)-2-amino-N-((5-cyanopyridin-2-yl)methyl)-N-(1-(3-fluoropyridin-2-yl)ethyl)-3-methylquinoline-6-carboxamide], the half-maximal inhibitory concentration (IC50) in the assay on HCT116 MTAP null cells stood at 110 nM; in the assay with HCT116 WT cells it was 4.18 µM. On PRMT5/MEP50, the Ki is 0.12 nM.

In the case of `Cc1cc(C(F)(F)F)ccc1CN(Cc1ncccc1F)C(=O)c1ccc2nc(N)c(C)cc2c1` [Example 329, 2-amino-N-((3-fluoro-2-pyridinyl)methyl)-3-methyl-N-(2-methyl-4-(trifluoromethyl)benzyl)-6-quinolinecarboxamide], the IC50 in the assay on HCT116 MTAP null cells amounted to 128 nM; in the assay on HCT116 WT cells, 3.9 µM. For the same molecule, on PRMT5/MEP50, the Ki was 0.13 nM.

On to `Cc1cc2cc(C(=O)N(Cc3cnc(C(F)(F)F)cn3)[C@H](C)c3ncccn3)ccc2nc1N` (single isomer, unassigned) [Example 449], for which the IC50 came out at 168 nM with HCT116 MTAP null cells and 5.9 µM in the assay with HCT116 WT cells. Besides, at PRMT5/MEP50, the inhibition constant Ki was determined as 0.27 nM.

In the case of `Cc1cc2cc(C(=O)N(Cc3ccc(C4=CCOCC4)cn3)[C@H](C)c3ncccn3)ccc2nc1N` [Example 557, (R)-2-amino-N-((5-(3,6-dihydro-2H-pyran-4-yl)pyridin-2-yl)methyl)-3-methyl-N-(1-(pyrimidin-2-yl)ethyl)quinoline-6-carboxamide], the IC50 in the assay on HCT116 MTAP null cells stood at 42 nM; in the assay on HCT116 WT cells, 1.73 µM. Moreover, at PRMT5/MEP50, the Ki came to 0.18 nM.

Consider `COC(=O)c1ccc(CN(C(=O)c2ccc3nc(N)c(C)cc3c2)[C@H](C)c2ncccc2F)nc1` [Example 403, methyl 6-((((2-amino-3-methyl-6-quinolinyl)carbonyl)((1R)-1-(3-fluoro-2-pyridinyl)ethyl)amino)methyl)-3-pyridinecarboxylate], for which the IC50 stood at 263 nM in the assay on HCT116 MTAP null cells and 8.88 µM in the assay with HCT116 WT cells. Moreover, the inhibition constant (Ki) on PRMT5/MEP50 was 0.55 nM.

For the molecule `CC[C@H](c1ncccn1)N(Cc1cnc(C(F)(F)F)cn1)C(=O)c1ccc2nc(N)c(C)cc2c1` (single isomer, unassigned) [Example 516], the half-maximal inhibitory concentration (IC50) in the assay on HCT116 MTAP null cells was found to be 155 nM; in the assay with HCT116 WT cells it was 3.64 µM. Also, the Ki on PRMT5/MEP50 is 0.14 nM.

Regarding `Cc1cc(N)nc2ccc(C(=O)N(Cc3ccc(C(F)(F)F)cn3)[C@H](C)c3ncccn3)cc12` [Example 432, 2-amino-4-methyl-N-((1R)-1-(2-pyrimidinyl)ethyl)-N-((5-(trifluoromethyl)-2-pyridinyl)methyl)-6-quinolinecarboxamide], the IC50 in the assay on HCT116 MTAP null cells amounted to 24 nM; in the assay on HCT116 WT cells it was 0.11 µM. In addition, at PRMT5/MEP50, the inhibitory constant (Ki) is 0.57 nM.

In the case of `Cc1cc2cc(C(=O)N(Cc3ccc(F)cn3)Cc3ccc(C(F)(F)F)cn3)ccc2nc1N` [Example 383, 2-amino-N-((5-fluoro-2-pyridinyl)methyl)-3-methyl-N-((5-(trifluoromethyl)-2-pyridinyl)methyl)-6-quinolinecarboxamide], the figures for the half-maximal inhibitory concentration (IC50) with HCT116 MTAP null cells and in the assay on HCT116 WT cells were 434 nM and 5.32 µM, respectively. Also, the Ki on PRMT5/MEP50 is 2.06 nM.

As for `COC(=O)c1ccc(CN(Cc2ncccc2F)C(=O)c2ccc3nc(N)c(C)cc3c2)nc1` [Example 331, methyl 6-((((2-amino-3-methyl-6-quinolinyl)carbonyl)((3-fluoro-2-pyridinyl)methyl)amino)methyl)-3-pyridinecarboxylate], the IC50 was 490 nM in the assay on HCT116 MTAP null cells and over 10 µM in the assay with HCT116 WT cells. In addition, the Ki at PRMT5/MEP50 turned out to be 0.13 nM.

For the molecule `Cc1cc2cc(C(=O)N(Cc3ccc(C(F)(F)F)cn3)C3(c4ncccn4)CC3)ccc2nc1N` [Example 430, 2-amino-3-methyl-N-(1-(2-pyrimidinyl)cyclopropyl)-N-((5-(trifluoromethyl)-2-pyridinyl)methyl)-6-quinolinecarboxamide], the IC50 with HCT116 MTAP null cells was 506 nM; in the assay with HCT116 WT cells, over 10 µM. Besides, at PRMT5/MEP50, the Ki worked out at 0.42 nM.

On to `Cc1cc2cc(C(=O)N(Cc3ccc(C(F)(F)F)cn3)[C@H](C)C3CC3)ccc2nc1N` [Example 309, 2-amino-N-((1R)-1-cyclopropylethyl)-3-methyl-N-((5-(trifluoromethyl)-2-pyridinyl)methyl)-6-quinolinecarboxamide], for which the half-inhibitory concentration (IC50) with HCT116 MTAP null cells was found to be 644 nM; in the assay on HCT116 WT cells it was 7.44 µM. For the same molecule, the inhibition constant (Ki) at PRMT5/MEP50 is 2.35 nM.

Regarding `Cc1cc2c(CN(Cc3ccc(C(F)(F)F)cn3)C(=O)c3ccc4nc(N)c(C)cc4c3)ccnc2[nH]1` [Example 506, 2-amino-3-methyl-N-((2-methyl-1H-pyrrolo[2,3-b]pyridin-4-yl)methyl)-N-((5-(trifluoromethyl)-2-pyridinyl)methyl)-6-quinolinecarboxamide], the results for the half-maximal inhibitory concentration (IC50) in the assay with HCT116 MTAP null cells and with HCT116 WT cells were 107 nM and 1.16 µM, respectively. The Ki on PRMT5/MEP50 worked out at 0.01 nM.

Regarding `Cc1cc2cc(C(=O)N(Cc3ccc(C(N)=O)cc3)Cc3ccc(C(F)(F)F)cn3)ccc2nc1N` [Example 355, 2-amino-N-(4-carbamoylbenzyl)-3-methyl-N-((5-(trifluoromethyl)-2-pyridinyl)methyl)-6-quinolinecarboxamide], the IC50 with HCT116 MTAP null cells was 159 nM; in the assay on HCT116 WT cells, 3.35 µM. Moreover, the Ki on PRMT5/MEP50 is 0.2 nM.

For the molecule `C[C@H](c1ncccn1)N(Cc1ccc(C(F)F)cn1)C(=O)c1ccc2nc(N)c(Br)cc2c1` [Example 410, 2-amino-3-bromo-N-((5-(difluoromethyl)-2-pyridinyl)methyl)-N-((1R)-1-(2-pyrimidinyl)ethyl)-6-quinolinecarboxamide], the values for the IC50 in the assay on HCT116 MTAP null cells and with HCT116 WT cells were 88 nM and 5.39 µM, respectively. On PRMT5/MEP50, the Ki is 0.04 nM.
